Columns and labels:
patients = conditions: first course of cisplatin treatment; cited from earlier work
Description: Acute kidney injury (AKI) is a life-threatening condition characterized by a rapid loss of renal function, leading to high mortality and morbidity.[1],[2] Approximately 13% of patients received the first course of cisplatin treatment developed AKI.[2],[3] Despite various initial triggers, the pathophysiology of AKI often involves common pathogenic denominators, such as cell death, tissue injury, and drastic inflammation.[4] Several types of cell death have been recently described in AKI, and multiple strategies targeting cell death have been reported to help mitigate the progression of AKI.[5] ...

AKI mice [1] = test: serum creatinine of AKI mice; type: in vivo, mouse
Experimental: (§1) LPS (Sigma, Cat#L2630) was dissolved in PBS to 2.5 mg/mL for one-time intraperitoneal 25 mg/kg injection; deoxyribonuclease I (DNase I, Sigma, Cat#SLBV1446) was dissolved in PBS to 1 mg/mL and injected intraperitoneally at a dose of 10 mg/kg at 4 h before cisplatin or AA I injection and every 24 h after injection. Disulfiram (MedChemExpress, CAS:97-77-8) was diluted in corn oil to 12.5 mg/mL and injected 50 mg/kg intraperitoneally every 24 h after cisplatin or AA I administration. Cu(II) (Sigma, Cat#344419) was dissolved in PBS to 30 µg/mL and administered intraperitoneally 6 h before disulfiram at a dose of 0.15 mg/kg; TNF-α (Peprotech, Cat#315-01 A) was dissolved in PBS to 10 µg/mL and injected at 100 µg/kg once through the caudal vein 24 h before cisplatin injection. […] MCC950 (MedChem Express, CAS:256373-96-3) was dissolved in PBS to 5 mg/mL and injected intraperitoneally at a dose of 50 mg/kg 12 h before cisplatin or AA I injection and every 12 h after injection; berberine (APExBIO, Cat#N1368) was dissolved in PBS to 5 mg/mL and 5 mg/kg injected intraperitoneally at 36, 24 and 12 h before cisplatin; […] To supervise the effects of various treatments on survival time and rate, the mice were observed, and survival curves were generated. To investigate the specific mechanisms, whole blood was retrieved from the orbit, serum was separated through centrifugation on the 4th day, and the mice were then sacrificed by cervical dislocation. Mice were randomly assigned in experiments, while there was no blinding during the animal experiments. Renal function was evaluated based on serum creatinine level and histological features. Serum creatinine was determined in the Clinical Pharmacology Lab, Clinical Trial Center, WCH, SCU. The kidneys were extracted from euthanized mice, immediately fixed with 4% paraformaldehyde, and embedded in paraffin. Furthermore, the samples were cut into 5 µm thick sections. These tissue samples were subjected to hematoxylin-eosin (HE) and […] according to standard protocols with HE reagent (Biosharp, Cat#BL702B, BL703B) and Masson reagent (Servicebio, Cat#G1006-100ML). The pathological changes were detected through optical microscopy, and the tubulointerstitial injury score was determined as previously reported.

AKI mice [2] = test: survival of AKI mice; type: in vivo, mouse; conditions: n = 10 per group
Experimental: (§2) Aristolochic acid I sodium salt was dissolved in PBS to 1 mg/mL and injected intraperitoneally at a dose of 10 mg/kg (body weight) every 24 h for 3 days; cisplatin was dissolved in PBS to 1.5 mg/mL for one-time intraperitoneal 25 mg/kg injection; LPS (Sigma, Cat#L2630) was dissolved in PBS to 2.5 mg/mL for one-time intraperitoneal 25 mg/kg injection; deoxyribonuclease I (DNase I, Sigma, Cat#SLBV1446) was dissolved in PBS to 1 mg/mL and injected intraperitoneally at a dose of 10 mg/kg at 4 h before cisplatin or AA I injection and every 24 h after injection. Disulfiram (MedChemExpress, CAS:97-77-8) was diluted in corn oil to 12.5 mg/mL and injected 50 mg/kg intraperitoneally every 24 h after cisplatin or AA I administration. Cu(II) (Sigma, Cat#344419) was dissolved in PBS to 30 µg/mL and administered intraperitoneally 6 h before disulfiram at a dose of 0.15 mg/kg; TNF-α (Peprotech, Cat#315-01 A) was dissolved in PBS to 10 µg/mL and injected at 100 µg/kg once through the caudal vein 24 h before cisplatin injection. Metformin (Sigma, Cat#D150959) was dissolved in PBS to 5 mg/mL and injected intraperitoneally at a dose of 50 mg/kg 24 h before cisplatin or AA I injection and every 24 h after injection. MCC950 (MedChem Express, CAS:256373-96-3) was dissolved in PBS to 5 mg/mL and injected intraperitoneally at a dose of 50 mg/kg 12 h before cisplatin or AA I injection and every 12 h after injection; berberine (APExBIO, Cat#N1368) was dissolved in PBS to 5 mg/mL and 5 mg/kg injected intraperitoneally at 36, 24 and 12 h before cisplatin; A20-derived-peptide was dissolved in ddH2O to 3 mg/mL and injected intraperitoneally at a dose of 15 mg/kg 1 h before cisplatin. To supervise the effects of various treatments on survival time and rate, the mice were observed, and survival curves were generated. To investigate the specific mechanisms, whole blood was retrieved from the orbit, serum was separated through centrifugation on the 4th day, and the mice were then sacrificed by cervical dislocation. Mice were randomly assigned in experiments, while there was no blinding during the animal experiments.

BMDMs = test: pyroptotic induction of BMDMs by ox-DNA or LPS plus ATP (immunoblot of GSDMD); type: cell-based, mouse; conditions: BMDMs pretreated with low-dose TNF-α before ox-dsDNA90 or LPS plus ATP; Fig. 6l
Experimental: Primary bone marrow-derived macrophages (BMDMs) were isolated from 6- to 8-week-old C57BL/6J male mice. The mice were sacrificed and soaked in 75% alcohol for 1–2 min. The femurs and tibias were removed and immersed in PBS containing 500 U/mL penicillin and […] streptomycin for 3 min. The marrow cavities were repeatedly rinsed with DMEM using a sterile 1 mL syringe. The cell suspension was collected and centrifuged at 300 × g for 10 min, and the supernatant was discarded. The cell pellet was resuspended in 5 mL red cell lysis buffer (Bio Sharp, Cat#BL503A) on ice for 5 min, followed by centrifugation, and the supernatant was removed. The cells were then resuspended in DMEM complete culture medium supplemented with 10% FBS and 30% L929 cell-conditioned medium as an induction factor.[51] Half of the medium was changed every other day for 5–7 days. The suspended cells were removed, and the adherent BMDMs were digested with trypsin and plated on a six-well plate at a density of 1 × 10^6 cells/well. […]
(§3) Prepared protein samples were subjected to 6-15% SDS polyacrylamide gels and separated according to the protein concentrations. […] The protein bands were detected with an enhanced chemiluminescence kit (Millipore, Cat#WBKLS0500) using a gel imaging system (Bio-Rad, USA) for visualization and standardization of the amount of protein loaded. α-Tubulin was used as the internal control.

AKI mice [3] = test: overall therapeutic effect in AKI mice; type: in vivo, mouse; conditions: TNF-α vs Anc80L65 (A20 overexpression)
Experimental: as §2

AKI mice [4] = test: tubular injury / renal injury of AKI mice (HE histology); type: in vivo, mouse
Experimental: as §1

NEK7 [5] = test: NEK7 expression in iBMDMs (immunoblot); type: cell-based, mouse; conditions: LPS plus metformin 0, 1, 2 or 5 mM, Fig. 9a
Experimental: For immunoblot analysis of kidney tissue, total protein lysates were prepared from renal tissue, which was ground in liquid nitrogen and then added to lysis buffer in a Total Protein Extraction Kit (Signalway Antibody, Cat#PE001). Samples were centrifuged at 12,000 rpm for 15 min at 4 °C, and the supernatant was collected immediately. For immunoblot analysis of cells, cultured cells after treatment were lysed with lysis buffer, which was premixed with protease and phosphatase inhibitors (Signalway Antibody, Cat#PE001). The samples were centrifuged at 12,000 r/min for 15 min at 4 °C, and the supernatant was collected immediately. Ultimately, both types of protein samples were then mixed with 4× Laemmli loading buffer (Bio-Rad, Cat#1610747) and denatured by boiling at 95 °C for 5 min.
as §3, with “concentrations. Then, the protein bands were transferred to polyvinylidene difluoride (PVDF) membranes by a wet transfer apparatus (Bio-Rad, USA).” for “concentrations.”

NEK7 [6] = test: NEK7 expression in renal tissue of mice (immunoblot); type: in vivo, mouse; conditions: Cis mice, metformin 50 mg/kg i.p., Fig. 9b
Experimental: For immunoblot analysis of kidney tissue, total protein lysates were prepared from renal tissue, which was ground in liquid nitrogen and then added to lysis buffer in a Total Protein Extraction Kit (Signalway Antibody, Cat#PE001). Samples were centrifuged at 12,000 rpm for 15 min at 4 °C, and the supernatant was collected immediately. […] Ultimately, both types of protein samples were then mixed with 4× Laemmli loading buffer (Bio-Rad, Cat#1610747) and denatured by boiling at 95 °C for 5 min.
Prepared protein samples were subjected to 6-15% SDS polyacrylamide gels and separated according to the protein concentrations. Then, the protein bands were transferred to polyvinylidene difluoride (PVDF) membranes by a wet transfer apparatus (Bio-Rad, USA). […] The protein bands were detected with an enhanced chemiluminescence kit (Millipore, Cat#WBKLS0500) using a gel imaging system (Bio-Rad, USA) for visualization and standardization of the amount of protein loaded. α-Tubulin was used as the internal control. […]

AKI mice [7] = test: renal fibrosis of AKI mice (Masson staining); type: in vivo, mouse; conditions: Cis mice; metformin 50 mg/kg i.p. 24 h before and every 24 h after; n = 5
Experimental: LPS (Sigma, Cat#L2630) was dissolved in PBS to 2.5 mg/mL for one-time intraperitoneal 25 mg/kg injection; deoxyribonuclease I (DNase I, Sigma, Cat#SLBV1446) was dissolved in PBS to 1 mg/mL and injected intraperitoneally at a dose of 10 mg/kg at 4 h before cisplatin or AA I injection and every 24 h after injection. Disulfiram (MedChemExpress, CAS:97-77-8) was diluted in corn oil to 12.5 mg/mL and injected 50 mg/kg intraperitoneally every 24 h after cisplatin or AA I administration. Cu(II) (Sigma, Cat#344419) was dissolved in PBS to 30 µg/mL and administered intraperitoneally 6 h before disulfiram at a dose of 0.15 mg/kg; TNF-α (Peprotech, Cat#315-01 A) was dissolved in PBS to 10 µg/mL and injected at 100 µg/kg once through the caudal vein 24 h before cisplatin injection. […] Renal function was evaluated based on serum creatinine level and histological features. Serum creatinine was determined in the Clinical Pharmacology Lab, Clinical Trial Center, WCH, SCU. […] The pathological changes were detected through optical microscopy, and the tubulointerstitial injury score was determined as previously reported.

NEK7 [8] = conditions: low dose; cited from earlier work
Description: Furthermore, we investigated the potential therapeutic medicines targeting to NEK7 and evaluated their effects on alleviating AKI. […] A ...

[9] = Cis or AA I mice, TNF-α 100 µg/kg pre-injection
[10] = Cis mice, metformin 50 mg/kg i.p. 24 h before and every 24 h after

N.N.[Cl][Pt][Cl] [cisplatin]
patients developing AKI after first course of treatment (patients): Approximately 13%

TNF-α
serum creatinine (in words) (AKI mice [1]; [9]): alleviated serum creatinine
survival (AKI mice [2]; Cis or AA I mice, TNF-α 100 µg/kg once through the caudal vein 24 h before): extended overall survival benefit
resistance of BMDMs to pyroptotic induction (BMDMs): more resistant to pyroptotic induction
alleviation of AKI compared with Anc80L65 (AKI mice [3]): more efficient in alleviating AKI
tubular injury (in words) (AKI mice [4]; [9]): alleviated serum creatinine and tubular injury

CN(C)C(=N)N=C(N)N [metformin, Metformin]
NEK7 expression in vitro (NEK7 [5]): downregulates NEK7
serum creatinine (in words) (AKI mice [1]; [10]): markedly ameliorated cisplatin-induced serum creatines
survival (AKI mice [2]; [10]): longer survival time and better survival rate
NEK7 expression in vivo (NEK7 [6]): downregulates NEK7
renal fibrosis (AKI mice [7]): markedly ameliorated cisplatin-induced serum creatines, tubular injury, renal fibrosis
tubular injury (in words) (AKI mice [4]; [10]): markedly ameliorated cisplatin-induced serum creatines, tubular injury
NEK7 expression (literature) (NEK7 [8]): limit the expression of NEK7 to alleviate inflammation

Reference: article PMC12032302, “A20 attenuates oxidized self-DNA-mediated inflammation in acute kidney injury” (Signal Transduction and Targeted Therapy, 2025)
